One test deals with T1, hQ23 (HEK-293 cell line stably transfected with one of the members of the KCNQ family) (Homo sapiens, UniProt O43525+O43526).
T1 construct: expressed in transfected cells; host or cells: HEK-293, stably transfected
T1 sequence (O43526 whole entry): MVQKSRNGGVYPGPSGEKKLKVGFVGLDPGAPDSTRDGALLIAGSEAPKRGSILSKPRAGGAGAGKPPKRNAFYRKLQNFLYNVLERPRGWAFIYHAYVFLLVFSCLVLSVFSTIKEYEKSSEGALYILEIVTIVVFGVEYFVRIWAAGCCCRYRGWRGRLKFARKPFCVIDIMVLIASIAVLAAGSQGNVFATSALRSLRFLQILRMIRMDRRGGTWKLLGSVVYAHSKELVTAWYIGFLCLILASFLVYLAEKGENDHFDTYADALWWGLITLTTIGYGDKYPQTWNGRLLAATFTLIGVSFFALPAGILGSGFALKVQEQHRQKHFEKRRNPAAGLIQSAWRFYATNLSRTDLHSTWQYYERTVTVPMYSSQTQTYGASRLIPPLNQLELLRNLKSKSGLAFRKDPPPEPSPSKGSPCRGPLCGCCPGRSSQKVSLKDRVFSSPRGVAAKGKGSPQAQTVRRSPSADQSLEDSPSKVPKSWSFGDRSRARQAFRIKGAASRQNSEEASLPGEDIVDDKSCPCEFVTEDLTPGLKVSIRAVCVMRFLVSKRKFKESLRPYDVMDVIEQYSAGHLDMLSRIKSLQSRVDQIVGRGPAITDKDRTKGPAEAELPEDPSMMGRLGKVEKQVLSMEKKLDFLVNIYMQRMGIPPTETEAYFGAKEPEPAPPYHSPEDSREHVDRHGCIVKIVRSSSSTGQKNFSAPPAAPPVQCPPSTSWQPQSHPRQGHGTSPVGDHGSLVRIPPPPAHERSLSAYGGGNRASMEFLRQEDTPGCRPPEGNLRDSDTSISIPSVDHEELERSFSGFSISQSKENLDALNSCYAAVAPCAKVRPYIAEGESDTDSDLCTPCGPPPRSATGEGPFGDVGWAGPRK
T1 sequence (O43525 whole entry): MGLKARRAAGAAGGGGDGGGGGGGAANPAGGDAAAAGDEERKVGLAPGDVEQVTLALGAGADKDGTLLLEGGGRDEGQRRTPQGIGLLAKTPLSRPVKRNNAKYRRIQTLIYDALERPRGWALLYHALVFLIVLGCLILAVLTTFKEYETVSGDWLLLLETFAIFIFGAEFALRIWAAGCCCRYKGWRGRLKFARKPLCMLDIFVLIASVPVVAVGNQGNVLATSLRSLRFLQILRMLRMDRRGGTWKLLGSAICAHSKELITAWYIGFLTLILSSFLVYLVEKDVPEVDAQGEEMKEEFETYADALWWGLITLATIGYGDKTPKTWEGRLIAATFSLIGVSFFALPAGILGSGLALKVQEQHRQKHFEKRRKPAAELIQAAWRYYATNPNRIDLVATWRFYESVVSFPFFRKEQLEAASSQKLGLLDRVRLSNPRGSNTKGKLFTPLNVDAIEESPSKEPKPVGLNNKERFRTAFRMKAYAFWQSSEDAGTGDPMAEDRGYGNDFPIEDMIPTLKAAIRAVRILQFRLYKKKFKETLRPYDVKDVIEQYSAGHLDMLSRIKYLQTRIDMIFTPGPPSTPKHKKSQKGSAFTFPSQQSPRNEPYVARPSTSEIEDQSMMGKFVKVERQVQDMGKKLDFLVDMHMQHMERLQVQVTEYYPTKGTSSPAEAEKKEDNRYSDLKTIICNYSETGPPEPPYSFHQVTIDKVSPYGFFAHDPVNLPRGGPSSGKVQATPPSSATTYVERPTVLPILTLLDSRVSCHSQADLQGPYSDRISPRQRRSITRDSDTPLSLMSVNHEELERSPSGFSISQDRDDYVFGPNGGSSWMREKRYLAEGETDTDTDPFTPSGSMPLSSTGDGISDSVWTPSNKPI
In words: Thallium flux assay for KCNQ channel blockers (FLIPR, BTC dye). Type of test: cell-based. To be noted: Table 2; thallium flux, HEK-293. How it is done:
Thallium Flux Assay for KCNQ channel blockers. Approximately 20,000 cells/well of an HEK-293 cell line stably transfected with one of the members of the KCNQ family were plated into clear-bottom, black-walled, poly-D-lysine coated, 384 well assay plates in 20 μl/well of low chloride plating medium. Low chloride plating medium was composed of the following: sodium gluconate, 109 mM; potassium gluconate, 5.4 mM; hemi-calcium gluconate, 3.6 mM; magnesium sulfate, 0.8 mM; sodium bicarbonate, 26.2 mM; sodium phosphate monobasic, 1.2 mM; glutamine, 2 mM; glucose, 5 mM; HEPES (pH 7.3) 10 mM, 10× concentration of vitamins (Gibco/LifeTechnologies catalog #11120-052) and 1× concentration of amino acids (Gibco/LifeTechnologies catalog #11130-051).
Following overnight incubation in a 5% CO2 incubator at 37° C., the cells in the plates were loaded with 20 μl/well of a dye loading solution containing the acetomethoxy ester of the thallium-sensitive fluorescent dye BTC, BTC-AM (2 μM) and pluronic acid (0.02% w/v) in chloride free assay buffer. Chloride free assay buffer was composed of the following: sodium gluconate, 140 mM; potassium gluconate, 2.5 mM; hemi-calcium gluconate, 6 mM; hemi-magnesium gluconate, 2 mM; glucose, 5 mM; HEPES (pH 7.3), 10 mM.
Following incubation in the dye loading solution for from 45–90 min at room temperature, the dye loading solution was removed by aspiration and replaced with 40 μl/well of chloride free assay buffer.
Prior to addition to cell plates, test compound and standard compounds were dissolved in DMSO to 3 mM concentration. Compounds were then diluted from the 3 mM stock to 100-fold over the final assay concentration in DMSO. Finally, compounds in DMSO were diluted from 100-fold over the final assay concentration to 5-fold over the final assay concentration in chloride free assay buffer.
Ten μl/well of compounds at 5-fold over the final assay concentration were then added to the cell plates. This represents a 1:5 dilution, yielding the final test concentration. The wells used for test compounds were A1–P20. Wells A21–P22 contained a standard ‘blocker’ and a fully efficacious concentration (positive control). Wells A23–P24 contained chloride free assay buffer containing 1% DMSO (negative control).
Following addition of test compounds, the plates were loaded onto the Molecular Devices FLIPR. The 488 nm line of the argon laser was used to excite the BTC and the emission filter was a 540(+/−30) nm. Images were collected at 1 Hz. Ten seconds of baseline were collected and then the FLIPR was used to add 13 μl/well of a stimulus buffer composed of Tl2SO4, 25 mM; sodium gluconate, 30 mM; potassium sulfate, 50 mM; hemi-calcium gluconate, 6 mM; hemi-magnesium gluconate, 2 mM; glucose, 5 mM; HEPES (pH 7.3), 10 mM in chloride free assay buffer. Images were collected for an additional 60 seconds.
For data analysis, the amplitude of the average of the negative controls was subtracted from all wells. The amplitudes of the test compounds were then compared to the value of four standard deviations of the negative control wells. The lowest concentration of a test compound sufficient to generate a signal amplitude greater than or equal to four standard deviations from the amplitude of the negative controls was defined as the minimal active concentration.
For generating IC50 values, compounds were serially diluted in 1:3 volume increments to produce a 10 point concentration series. IC50 values were calculated by fitting the resulting amplitudes to a single-site logistic equation. IC50 was defined as the concentration of test compound required to yield 50% of the response of the positive control.
With `CC1CCC(Nc2ncc(C(=O)NCc3ccc(F)cc3F)c(C3(c4ccccc4)CC3)n2)CC1` (stereo not drawn) [Example 42, 5-pyrimidinecarboxamide, N-[(2,4-difluorophenyl)methyl]-2-[(4-methylcyclohexyl)amino]-4-(1-phenylcyclopropyl)-], a half-maximal effect (EC50) was put at 413 nM.

Still in this test, the particulars now being: Table 3; thallium flux, HEK-293.
Consider `CCC(C)Nc1ncc(C(=O)NCc2ccc3c(c2)OCO3)c(C2(c3ccc(Cl)cc3)CCC2)n1` (stereo not drawn) [Example 59, 5-pyrimidinecarboxamide, N-(1,3-benzodioxol-5-ylmethyl)-4-[1-(4-chlorophenyl)cyclobutyl]-2-[(1-methylpropyl)amino]-], for which the EC50 (in general, the concentration giving half of the maximal effect) came to 405 nM.

Staying with this test, now noted: hQ23 cells, thallium flux.
`CC1CCCN(c2ncc(C(=O)N(C)CCc3ccccc3)c(C3(c4ccccc4)CCCC3)n2)C1` (stereo not drawn) [Example 80, 5-pyrimidinecarboxamide, N-methyl-2-(3-methyl-1-piperidinyl)-4-(1-phenylcyclopentyl)-N-(2-phenylethyl)-]: the EC50 is 880 nM.
Still for that read-out and setting: the result for `CC1CCCN(c2ncc(C(=O)NCc3cc(F)cc(C(F)(F)F)c3)c(C3(c4ccccc4)CCCC3)n2)C1` (stereo not drawn) [Example 126, 5-pyrimidinecarboxamide, N-[[3-fluoro-5-(trifluoromethyl)phenyl]methyl]-2-(3-methyl-1-piperidinyl)-4-(1-phenylcyclopentyl)-] reads 319 nM; that for `CCC(C)Nc1ncc(C(=O)NCc2ccc(Cl)cc2Cl)c(C2(c3ccccc3)CCCC2)n1` (stereo not drawn) [Example 114, 5-pyrimidinecarboxamide, N-[(2,4-dichlorophenyl)methyl]-2-[(1-methylpropyl)amino]-4-(1-phenylcyclopentyl)-], 102 nM; that for `CC1CCN(c2ncc(C(=O)N3CCc4ccccc4C3)c(C3(c4ccc(F)cc4)CCCC3)n2)CC1` [Example 212, isoquinoline, 2-[[4-[1-(4-fluorophenyl)cyclopentyl]-2-(4-methyl-1-piperidinyl)-5-pyrimidinyl]carbonyl]-1,2,3,4-tetrahydro-], 237 nM.
Still for that read-out and setting: the result for `CN(C(=O)c1cnc(NC2CCCC2)nc1C1(c2ccc(F)cc2)CCCC1)C1CCCCC1` [Example 209, 5-pyrimidinecarboxamide, N-cyclohexyl-2-(cyclopentylamino)-4-[1-(4-fluorophenyl)cyclopentyl]-N-methyl-] reads 702 nM; that for `CCN(C)C(=O)c1cnc(N2CCC(C)CC2)nc1C1(c2ccc(F)cc2)CCCC1` [Example 227, 5-pyrimidinecarboxamide, N-ethyl-4-[1-(4-fluorophenyl)cyclopentyl]-N-methyl-2-(4-methyl-1-piperidinyl)-], 882 nM; that for `O=C(NCc1ccc(F)cc1F)c1cnc(NC2CCCC2)nc1C1(c2ccc(Cl)cc2)CCCC1` [Example 189, 5-pyrimidinecarboxamide, 4-[1-(4-chlorophenyl)cyclopentyl]-2-(cyclopentylamino)-N-[(2,4-difluorophenyl)methyl]-], 340 nM.
The same measure, in the same setting: then `CC(NC(=O)c1cnc(N2CCN(C)CC2)nc1C1(c2ccccc2)CCCC1)c1ccc(F)cc1` (stereo not drawn) [Example 133, 5-pyrimidinecarboxamide, N-[1-(4-fluorophenyl)ethyl]-2-(4-methyl-1-piperazinyl)-4-(1-phenylcyclopentyl)-], with 442 nM.
Regarding `CC1CCN(c2ncc(C(=O)N(C)C3CCCCC3)c(C3(c4ccc(F)cc4)CCCC3)n2)CC1` [Example 208, 5-pyrimidinecarboxamide, N-cyclohexyl-4-[1-(4-fluorophenyl)cyclopentyl]-N-methyl-2-(4-methyl-1-piperidinyl)-], the response was half-maximal at 558 nM (EC50).
As to `CC1CCN(c2ncc(C(=O)NC(C)c3ccc(F)cc3)c(C3(c4ccc(Cl)cc4)CCCC3)n2)CC1` (stereo not drawn) [Example 199, 5-pyrimidinecarboxamide, 4-[1-(4-chlorophenyl)cyclopentyl]-N-[1-(4-fluorophenyl)ethyl]-2-(4-methyl-1-piperidinyl)-], the EC50 amounted to 61 nM.
Same read-out and setting: then `CCN(Cc1ccccc1)C(=O)c1cnc(N2CCCC(C)C2)nc1C1(c2ccc(F)cc2)CCCC1` (stereo not drawn) [Example 229, 5-pyrimidinecarboxamide, N-ethyl-4-[1-(4-fluorophenyl)cyclopentyl]-2-(3-methyl-1-piperidinyl)-N-(phenylmethyl)-], with 369 nM; and `CCN(C)C(=O)c1cnc(N2CCCC(C)C2)nc1C1(c2ccccc2)CCCC1` (stereo not drawn) [Example 83, 5-pyrimidinecarboxamide, N-ethyl-N-methyl-2-(3-methyl-1-piperidinyl)-4-(1-phenylcyclopentyl)-], with 605 nM.
The same measure, in the same setting: the result for `CC1CCN(c2ncc(C(=O)NCc3ccc(Cl)cc3Cl)c(C3(c4ccccc4)CCCC3)n2)CC1` [Example 113, 5-pyrimidinecarboxamide, N-[(2,4-dichlorophenyl)methyl]-2-(4-methyl-1-piperidinyl)-4-(1-phenylcyclopentyl)-] reads 10 nM.
`CC1CCC(Nc2ncc(C(=O)NCc3ccc4c(c3)OCO4)c(C3(c4ccccc4)CCCC3)n2)CC1` (stereo not drawn) [Example 90, 5-pyrimidinecarboxamide, N-(1,3-benzodioxol-5-ylmethyl)-2-[(4-methylcyclohexyl)amino]-4-(1-phenylcyclopentyl)-] gave an EC50 of 220 nM.
Still for that read-out and setting: then `CN1CCN(c2ncc(C(=O)NCc3ccc(C(F)(F)F)cc3)c(C3(c4ccc(Cl)cc4)CCCC3)n2)CC1` [Example 202, 5-pyrimidinecarboxamide, 4-[1-(4-chlorophenyl)cyclopentyl]-2-(4-methyl-1-piperazinyl)-N-[[4-(trifluoromethyl)phenyl]methyl]-], with 879 nM.

The test is the same for the next values; noted with them: hQ23 cells, thallium flux assay.
For `CC1CCC(Nc2ncc(C(=O)NCc3cccc4ccccc34)c(C3(c4ccc(F)cc4)CCCC3)n2)CC1` (stereo not drawn) [Example 248, 5-pyrimidinecarboxamide, 4-[1-(4-fluorophenyl)cyclopentyl]-2-[(4-methylcyclohexyl)amino]-N-(1-naphthalenylmethyl)-], the EC50 is 10 nM.
The same measure, in the same setting: then `CN1CCC(N(C)c2ncc(C(=O)NCc3ccc(Cl)cc3Cl)c(C3(c4ccc(F)cc4)CCCC3)n2)CC1` [Example 264, 5-pyrimidinecarboxamide, N-[(2,4-dichlorophenyl)methyl]-4-[1-(4-fluorophenyl)cyclopentyl]-2-[methyl(1-methyl-4-piperidinyl)amino]-], with 282 nM; and `O=C(NCc1cc(F)cc(C(F)(F)F)c1)c1cnc(NC2CCCC2)nc1C1(c2ccc(F)cc2)CCCC1` [Example 280, 5-pyrimidinecarboxamide, 2-(cyclopentylamino)-4-[1-(4-fluorophenyl)cyclopentyl]-N-[[3-fluoro-5-(trifluoromethyl)phenyl]methyl]-], with 60 nM.
With `CCN(Cc1ccccc1)C(=O)c1cnc(NC2CCCC2)nc1C1(c2ccc(F)cc2)CCCC1` [Example 232, 5-pyrimidinecarboxamide, 2-(cyclopentylamino)-N-ethyl-4-[1-(4-fluorophenyl)cyclopentyl]-N-(phenylmethyl)-], the EC50 came out at 460 nM.
Still for that read-out and setting: the result for `CN1CCN(c2ncc(C(=O)NCc3ccc(Cl)c(Cl)c3)c(C3(c4ccc(F)cc4)CCCC3)n2)CC1` [Example 254, 5-pyrimidinecarboxamide, N-[(3,4-dichlorophenyl)methyl]-4-[1-(4-fluorophenyl)cyclopentyl]-2-(4-methyl-1-piperazinyl)-] reads 529 nM.
Molecule `CN(C)CCNc1ncc(C(=O)NCc2ccc(F)cc2F)c(C2(c3ccc(F)cc3)CCCC2)n1` [Example 272, 5-pyrimidinecarboxamide, N-[(2,4-difluorophenyl)methyl]-2-[[2-(dimethylamino)ethyl]amino]-4-[1-(4-fluorophenyl)cyclopentyl]-] registered an EC50 of 967 nM.
The molecule `CN1CCN(c2ncc(C(=O)NCc3cc(F)cc(C(F)(F)F)c3)c(C3(c4ccc(F)cc4)CCCC3)n2)CC1` [Example 276, 5-pyrimidinecarboxamide, 4-[1-(4-fluorophenyl)cyclopentyl]-N-[[3-fluoro-5-(trifluoromethyl)phenyl]methyl]-2-(4-methyl-1-piperazinyl)-] gave a half-maximal effective concentration (EC50) of 327 nM.

The values are drawn from US7091202B2, “4-arylspirocycloalkyl-2-aminopyrimidine carboxamide KCNQ potassium channel modulators” (Bristol-Myers Squibb Company, priority 2004, dated 2006).
